Reference: patent US12655171B2, “Compounds for activating invariant natural killer T-cells and methods of use in eliminating inflammatory senescent cells” (Deciduous Therapeutics, Inc., priority 2021, dated 2026)
Each block holds one compound with its values, some of them ahead of it.

Columns and labels:
[1] = test system: senescent cells; assay: Selective killing of senescent cells in vitro by activated human iNKT cells; type: cell-based
Method: Human iNKT cells were isolated and activated by incubation with α-GalCer. Activated iNKT cells were combined with samples containing healthy cells and senescent cells.

[2] = test system: senescent cells in eWAT; assay: Diet induced obesity (HFD) mouse model: senescent cells (C12FDG+) in eWAT; type: in vivo, C57BL/6J mice; conditions: HFD mice, four days post-injection; FIG. 5E
Method: (§1) Senescence is a feature of pre-adipocytes in obese individuals. To study the efficacy of the molecules described herein in decreasing senescence in fat, a diet induced obesity high fat diet (HFD) mouse model was used. 22-week-old HFD mice were injected with α-GalCer as a control and compared with the compounds of the present disclosure. The blood and spleen (or adipose tissue) were collected to measure iNKT activation and expansion, respectively. Cells in the eWAT (adipose tissue) were also collected and measured for % senescent cells. HFD mice were compared to non-HFD (normal diet) mice.
(§2) 22-week-old C57BL/6J mice on a chow or high-fat diet (HFD) were injected (I.P) with […] of α-GalCer, compound DCD-101 or compound DCD-154. Molecules were either dissolved in DMSO at a 5 mg/mL stock solution, or formulated into liposomes through thin-film rehydration, then extrusion through 200 nm filters. Liposome-based formulations were constructed using soy phosphatidylcholine, cholesterol, and DCD or α-GalCer in a 2:1:0.15 ratio. Two or twenty hours post-injection, blood was collected from the tail to measure the level of IFNγ using ELISA. Four days post-injection, mice were sacrificed to collect eWAT or spleen. Spleen was used to measure the number of iNKT cells, and eWAT was used to measure the number of iNKT cells and senescent cells using flow cytometry. iNKT cells were identified in the digested adipose tissue by gating live cells and mouse CD1d-α-GalCer tetramer+ cells. Senescent cells were measured withing the processes adipose tissue by selecting mCD45− cells, and C12FDG^HIGH cells.

[3] = test system: iNKT cells; assay: Diet induced obesity (HFD) mouse model: iNKT cell expansion in spleen or eWAT; type: in vivo, C57BL/6J mice; conditions: HFD mice, I.P. 2 g, four days post-injection
Method: as §1, §2

[4] = test system: human iTCR; assay: % GFP hiNKT binding (recombinant protein CD1d + JiNKT); type: cell-based
[5] = test system: primary human iNKT cells; assay: Cytokine secretion of primary human iNKT cells co-cultured with drug-loaded BWSTIM cells; type: cell-based; conditions: for secretion of IFNγ / secretion of IL-4 / secretion of IL-6 / secretion of TNFα: GVK compounds vs absence of drug loading, α-GalCer vs GVK compounds, media collected 2 days later, FIG. 6C
Method: In order to determine the activation profile induced by the compounds described herein, primary human iNKT cells were co-cultured with drug-loaded BWSTIM cells.
Day 0: PBMCs were isolated from human blood using the STEMCELL TECHNOLOGIES™ SepMate™ PBMC isolation system. iNKT cells were then selected using the Miltenyi NKT magnetic cell separation kit.
Day 2: DCD molecules or α-GalCer were both dissolved in DMSO at a 5 mg/mL stock solution. BWSTIM cells were fixed with mitomycin C, then loaded with 10 μg/mL of DCD molecules or α-GalCer for 4 hours at 37° C. at a concentration of 20 k cells/well in 200 μL of media in a u-bottom 96 well dish. Cells were co-cultured with 80 k 6B11+ selected primary human iNKT cells.
D4: Media was collected. Cytokines were measured using the Satorious 4Plex kit on the iQue3 cytometer.
GVK molecules or α-GalCer were both dissolved in DMSO at a 5 mg/mL stock solution. BWSTIM cells were loaded with compounds for 4 hours at 37° C. at a concentration of 20 k cells/well in 200 μL of media in a u-bottom 96 well dish. Cells were co-cultured with 100 k 6B11+ selected primary human iNKT cells. Media was collected 2 days later. Cytokines were measured using the Satorious 4Plex kit on the iQue3 cytometer.

[6] = test system: IFNγ; assay: Diet induced obesity (HFD) mouse model: serum IFNγ (ELISA); type: in vivo, C57BL/6J mice
Method: as §1, §2

[7] = test system: human iTCR; assay: In vitro activation of human iTCR through Jurkat reporter cell line (JiNKT, GFP under NFkB promoter) with drug-loaded BWSTIM cells; type: cell-based; conditions: 1 μg/mL; for GFP expression compared to the negative control: BWSTIM + JiNKT, 24 hours, FIG. 6A
Method: In order to determine the human iTCR activation potential induced by the compounds described herein, a jurkat cell line (JiNKT) was transfected with the human iTCR, and GFP under the NFkB promoter (cell line licensed from the Medical University of Vienna). A BWS147 cell line (BWSTIM) was also transfected with CD80 and CD1d to act as the antigen-presenting cell.
(§3) DCD molecules or α-GalCer were both dissolved in DMSO at a 5 mg/mL stock solution. BWSTIM cells were loaded with DCD molecules or α-GalCer at varying concentrations for 4 hours at 37° C. at a concentration of 20 k cells/well in 200 μL of media in a u-bottom 96 well dish. BWSTIM cells were washed 2× with media, then incubated with JiNKT cells at a concentration of 80 k cells/well in a u-bottom 96 well dish. Cells were co-cultured for 18 to 24 hours. The percentage of cells expressing high levels of GFP was measured through flow cytometry (after gating out the mCD45+ BWSTIM cells).
(§4) A jurkat cell line (JiNKT) was transfected with the human iTCR, and GFP under the NFkB promoter. A BWS147 cell line (BWSTIM) was also transfected with CD80 and CD1d to act as the antigen-presenting cell. A mouse iNKT hybridoma cell line (DN3.2) was also used as the iNKT. […]
as §3, with “GVK” for “DCD”, “compounds” for “DCD molecules or α-GalCer at varying concentrations”, “for” for “for 18 to”, “cytometry. 1 μg/mL of molecule GVK1a, GVK1b, GVK1c, or GVK1f was incubated with BWSTIM+JiNKT, and compared to α-GalCer.” for “cytometry (after gating out the mCD45+ BWSTIM cells).”

[8] = test system: mouse iTCR; assay: In vitro activation of mouse iTCR, DN3.2 iNKT hybridoma with drug-loaded BWSTIM cells, IL-2 secretion; type: cell-based; conditions: 48 hours co-culture; FIG. 6B
Method: In order to determine the mouse iTCR activation potential induced by the compounds described herein, a mouse iNKT hybridoma cell line (DN3.2) from the La Jolla Institute for Allergy and Immunology were used as the iNKT. The BWS147 cell line (BWSTIM) with CD80 and CD1d acted as the antigen-presenting cell.
(§5) DCD molecules or α-GalCer were both dissolved in DMSO at a 5 mg/mL stock solution. BWSTIM cells were loaded with DCD molecules or α-GalCer of varying concentrations for 4 hours at 37° C. at a concentration of 20 k cells/well in 200 μL of media in a u-bottom 96 well dish. BWSTIM cells were washed 2× with media, then incubated with DN3.2 cells at a concentration of 80 k cells/well in a u-bottom 96 well dish. Cells were co-cultured for 48 hours. Media was collected and IL-2 was measured using the CisBio HTRF ELISA detection kit.
as §4
as §5, with “GVK” for “DCD”, “compounds” for “DCD molecules or α-GalCer of varying concentrations”

[9] = test system: DN3.2; assay: IL-2 Secretion (A20 + DN3.2); type: cell-based, mouse

% GFP hiNKT binding (recombinant protein CD1d + JiNKT) [4]: % 30
Compound: CCCCCCCCCCCCCCCCCCCCCCCCCC(=O)N[C@@H](CO[C@H]1O[C@H](CO)[C@H](O)[C@H](O)[C@H]1O)[C@H](O)[C@H](O)CCCCCCCCCCCCCC [α-GalCer, Alpha-galactosylceramide, reference compound]
killing of senescent vs non-senescent cells by iNKT cells activated by the compound ([1]; evaluated after 8 hours and 18 hours, FIG. 7B): senescent cells were selectively killed whereas non-senescent cells were maintained | presence of senescent vs non-senescent cells on incubation with iNKT cells activated by the compound ([1]; over a period of 18 hours, FIG. 7A): reduction in the presence of senescent cells over time whereas non-senescent cells were maintained | accumulation of senescent cells (C12FDG+) in eWAT [2]: effective in decreasing the accumulation of senescent cells in eWAT | expansion of immune (iNKT) cells in HFD mouse spleen ([3]; FIG. 5A): caused expansion of immune cells in HFD mouse spleen | expansion of immune (iNKT) cells in HFD mouse eWAT ([3]; percent iNKT cells of live cells, FIG. 5B): caused expansion of immune cells in HFD mouse eWAT | secretion of IFNγ [5]: significantly greater increase in the secretion | secretion of IL-4 [5]: significantly greater increase in the secretion | secretion of IL-6 [5]: significantly greater increase in the secretion | secretion of TNFα [5]: significantly greater increase in the secretion | levels of IFNγ in the HFD model ([6]; twenty hours post injection, FIG. 5D): significantly increased levels of IFNγ | levels of serum IFNγ in the HFD model ([6]; two hours post injection, FIG. 5C): significantly increased levels of IFNγ | GFP expression compared to the negative control [7]: induction remained high | % GFP hiNKT binding (BWSTIM + JiNKT) 1 μg/mL ([7]; % GFP): % 40-70

Compound: CCCCCCCCCCCCCCCCCCCCCCCCCC(=O)N[C@@H](CCC1OC(CO)C(O)C(O)C1O)[C@@H](O)[C@H](O)CCCCCCCCCCCCCC (some centres unmarked) [GVK1b]
expression of IL-2 in the DN3.2 cell line when loaded on BWSTIM CD1d [8]: did not induce expression of IL-2 | IL-2 Secretion (A20 + DN3.2) [9]: Does not | secretion of IFNγ [5]: did not increase secretion | secretion of IL-4 [5]: did not increase secretion | secretion of IL-6 [5]: did not increase secretion | secretion of TNFα [5]: did not increase secretion | Primary iNKT cytokine release ([5]; IL-4, IL-6, IFNγ or TNFα): No activation | GFP expression compared to the negative control [7]: did not induce GFP expression higher than the negative control | % GFP hiNKT binding (BWSTIM + JiNKT) 1 μg/mL, away from negative control ([7]; difference from negative control): % <5 away from
